Results: paper PMC9668280, “3H-1,2-Benzoxaphosphepine 2-oxides as selective inhibitors of carbonic anhydrase IX and XII” (Journal of Enzyme Inhibition and Medicinal Chemistry, 2022)
Like-named read-outs stand apart in the source and are kept apart here.

Assays:
Experiment in all cases: stopped-flow CO2 hydration assay
Assay type in all cases: biochemical
[1] = molecular target: T1, hCA I (Homo sapiens, UniProt P00915); settings: read-out: KI (μM)^a,b / hCA I
T1 construct: gene CA1; recombinant, obtained in-house
T1 sequence (P00915 2-261): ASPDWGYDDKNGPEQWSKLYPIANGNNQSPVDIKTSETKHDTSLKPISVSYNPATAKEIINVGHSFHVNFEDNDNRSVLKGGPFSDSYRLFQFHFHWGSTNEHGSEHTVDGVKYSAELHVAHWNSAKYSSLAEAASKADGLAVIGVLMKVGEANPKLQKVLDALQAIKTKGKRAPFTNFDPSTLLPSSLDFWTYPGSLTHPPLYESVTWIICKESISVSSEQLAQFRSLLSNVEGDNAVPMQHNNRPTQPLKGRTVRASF
From the text: stopped-flow CO2 hydration assay on hCA I

[2] = molecular target: T2, hCA II (Homo sapiens, UniProt P00918); settings: CO2 1.7-17 mM, 20 mM HEPES pH 7.4, 20 mM NaClO4, 6 h preincubation at room temperature; read-out: KI (μM)^a,b / hCA I
T2 construct: gene CA2; recombinant, obtained in-house
From the text: stopped-flow CO2 hydration assay on hCA II

[3] = molecular target: T3, hCA IX (Homo sapiens, UniProt Q16790); settings: read-out: KI (μM)^a,b / hCA IX
T3 construct: gene CA9; recombinant, obtained in-house
From the text: stopped-flow CO2 hydration assay on hCA IX

[4] = molecular target: T4, hCA XII (Homo sapiens, UniProt O43570); settings: read-out: KI (μM)^a,b / hCA XII
T4 construct: gene CA12; recombinant, obtained in-house
T4 sequence (O43570 25-354 limits assumed): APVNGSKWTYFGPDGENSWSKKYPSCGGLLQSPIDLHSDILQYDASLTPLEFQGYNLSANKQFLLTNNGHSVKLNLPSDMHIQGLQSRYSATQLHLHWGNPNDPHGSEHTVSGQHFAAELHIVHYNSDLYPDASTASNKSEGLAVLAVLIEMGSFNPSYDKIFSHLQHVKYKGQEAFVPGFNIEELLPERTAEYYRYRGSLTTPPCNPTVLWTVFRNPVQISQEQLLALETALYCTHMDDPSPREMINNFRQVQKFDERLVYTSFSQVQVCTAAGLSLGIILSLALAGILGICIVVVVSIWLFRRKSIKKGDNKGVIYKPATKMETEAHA
From the text: stopped-flow CO2 hydration assay on hCA XII

[5] = molecular target: T2, hCA II; settings: CO2 […], […] HEPES pH […] NaClO4, […] h preincubation at room temperature; read-out: KI (μM)^a,b / hCA I
[6] = CO2 1.7-17 mM, 20 mM HEPES pH 7.4, 20 mM NaClO4, 6 h preincubation at room temperature
[7] = CO2 […], […] HEPES pH […] NaClO4, […] h preincubation at room temperature

2-Hydroxy-3H-benzo[f][1,2]oxaphosphepine 2-oxide [7a]
Ki [1, 6]: > 100 µM | Ki [2]: > 100 µM | Ki [3, 6]: 1.3 µM | Ki [4, 6]: 0.51 µM

O=[N+]([O-])c1ccc2c(c1)C=CCP(=O)(O)O2 [7g, 2-Hydroxy-7-nitro-3H-benzo[f][1,2]oxaphosphepine 2-oxide]
Ki [5]: > 100 µM | Ki [1, 7]: > 100 µM | Ki [3, 7]: 0.67 µM | Ki [4, 7]: 1 µM

O=P1(O)CC=Cc2cc(I)ccc2O1 [7b, 2-Hydroxy-7-iodo-3H-benzo[f][1,2]oxaphosphepine 2-oxide]
Ki [5]: > 100 µM | Ki [1, 7]: > 100 µM | Ki [3, 7]: 0.88 µM | Ki [4, 7]: 0.68 µM

O=P1(O)CC=Cc2cc(Br)ccc2O1 [7c, 7-Bromo-2-hydroxy-3H-benzo[f][1,2]oxaphosphepine 2-oxide]
Ki [5]: > 100 µM | Ki [1, 7]: > 100 µM | Ki [3, 7]: 1 µM | Ki [4, 7]: 0.96 µM

CCOP1(=O)CC=Cc2cc(Br)ccc2O1 (stereo not shown) [6c, 7-Bromo-2-ethoxy-3H-benzo[f][1,2]oxaphosphepine 2-oxide]
Ki [5]: > 100 µM | Ki [1, 7]: > 100 µM | Ki [3, 7]: 0.76 µM | Ki [4, 7]: 1.6 µM

CCOP1(=O)CC=Cc2cc([N+](=O)[O-])ccc2O1 (stereo not shown) [6g, 2-Ethoxy-7-nitro-3H-benzo[f][1,2]oxaphosphepine 2-oxide]
Ki [5]: > 100 µM | Ki [1, 7]: > 100 µM | Ki [3, 7]: 3.9 µM | Ki [4, 7]: 0.95 µM

O=P1(O)CC=Cc2cccc(Br)c2O1 [7d, 9-Bromo-2-hydroxy-3H-benzo[f][1,2]oxaphosphepine 2-oxide]
Ki [5]: > 100 µM | Ki [1, 7]: > 100 µM | Ki [3, 7]: 2.5 µM | Ki [4, 7]: 1.8 µM

O=P1(O)CC=Cc2cc(Cl)cc(Cl)c2O1 [7f, 7,9-Dichloro-2-hydroxy-3H-benzo[f][1,2]oxaphosphepine 2-oxide]
Ki [5]: > 100 µM | Ki [1, 7]: > 100 µM | Ki [3, 7]: 0.8 µM | Ki [4, 7]: 1.7 µM

CCOP1(=O)CC=Cc2ccccc2O1 (stereo not shown) [6a, 2-Ethoxy-3H-benzo[f][1,2]oxaphosphepine 2-oxide]
Ki [5]: > 100 µM | Ki [1, 7]: > 100 µM | Ki [3, 7]: 0.82 µM

CCOP1(=O)CC=Cc2cc(Cl)cc(Cl)c2O1 (stereo not shown) [6f, 7,9-Dichloro-2-ethoxy-3H-benzo[f][1,2]oxaphosphepine 2-oxide]
Ki [5]: > 100 µM | Ki [1, 7]: > 100 µM | Ki [3, 7]: 6.1 µM | Ki [4, 7]: 3.4 µM

COc1cccc2c1OP(=O)(O)CC=C2 [7e, 2-Hydroxy-9-methoxy-3H-benzo[f][1,2]oxaphosphepine 2-oxide]
Ki [5]: > 100 µM | Ki [1, 7]: > 100 µM | Ki [3, 7]: 1.8 µM | Ki [4, 7]: 1.2 µM

CCOP1(=O)CC=Cc2cccc(OC)c2O1 (stereo not shown) [6e, 2-Ethoxy-9-methoxy-3H-benzo[f][1,2]oxaphosphepine 2-oxide]
Ki [5]: > 100 µM | Ki [1, 7]: > 100 µM | Ki [3, 7]: 9 µM | Ki [4, 7]: 7.4 µM

CCOP1(=O)CC=Cc2cccc(Br)c2O1 (stereo not shown) [6d, 9-Bromo-2-ethoxy-3H-benzo[f][1,2]oxaphosphepine 2-oxide]
Ki [5]: > 100 µM | Ki [1, 7]: > 100 µM | Ki [3, 7]: 11.3 µM | Ki [4, 7]: 3.3 µM

CCOP1(=O)CC=Cc2cc(I)ccc2O1 (stereo not shown) [6b, 2-Ethoxy-7-iodo-3H-benzo[f][1,2]oxaphosphepine 2-oxide]
Ki [5]: > 100 µM | Ki [1, 7]: > 100 µM | Ki [3, 7]: 4.7 µM | Ki [4, 7]: 2.4 µM
